The values below are quoted from earlier work in patent US6939965B2, “Process of manufacture of 1,3-oxathiolane nucleosides using titanium trichloride mono-isopropoxide” (Gilead Sciences, Inc., priority 1998, dated 2005).

Structures are written as SMILES.

Data set [1] relates to HIV. To be noted: racemic mixture, compared with AZT.
Data set [2] has as its system HIV.

Take `Nc1ccn(C2CSC(CO)O2)c(=O)n1` (racemic) [BCH-189, 2-hydroxymethyl-5-(cytosin-1-yl)-1,3-oxathiolane]: in data set [1], the “activity against HIV relative to AZT” value was “approximately the sane activity against HIV as AZT”. In the case of `Nc1nc(=O)n([C@@H]2CS[C@H](CO)O2)cc1F` (relative stereo) [FTC, cis-2-hydroxymethyl-5-(5-fluorocytosin-1-yl)-1,3-oxathiolane], in data set [2], the HIV activity entry is recorded as “potent HIV activity”.
